Measured values from patent US7141397B2, “Method of preparing a guanosine-group compound and an intermediate thereof” (Yuki Gosei Kogyo Co., Ltd., priority 2000, dated 2006).

Experiment: Solubility of guanine and glyoxal-guanine in water (HPLC of liquid layer)
Assay type: physicochemical
Details: for solubility to water: general statement, no temperature given; for Solubility at each temperature: water, stirred 1 hour
Description: An excess amount of each compound was suspended in water, stirred for 1 hour at each temperature and left for a while. The liquid layer was analyzed with HPLC equipped with a UV detector, under the conditions described below.
Conditions of the HPLC analysis:
Column: Superiorex ODS (manufactured by Shiseido)
Eluent: 0.1 M ammonium dihydrogenphosphate solution: methanol=97:3 (v/v)

## Nc1nc2nc[nH]c2c(=O)[nH]1 [Guanine, guanine]
  solubility to water: does not exceed a few ppm
30° C.
  Solubility at each temperature: ≤ 2 or mg/kg
40° C.
  Solubility at each temperature: ≤ 2 or mg/kg
50° C.
  Solubility at each temperature: 2 mg/kg
60° C.
  Solubility at each temperature: 2 mg/kg

## O=c1c2nc[nH]c2nc2n1C(O)C(O)N2 (stereo not shown) [Glyoxal-guanine, 6,7-dihydro-6,7-dihydroxyimidazo[1,2-a]purine-9(3H)-one]
  solubility to water: soluble to water
30° C.
  Solubility at each temperature: 200 mg/kg
40° C.
  Solubility at each temperature: 275 mg/kg
50° C.
  Solubility at each temperature: 330 mg/kg
60° C.
  Solubility at each temperature: 440 mg/kg
